SMILES strings stand for the structures.

The values below come from patent EP4806891A1 (Kangbaida (Sichuan) Biotechnology Co., Ltd., priority 2023, dated 2025).

The target in the test is T1, HEK-Blue-hTLR9 cells (Homo sapiens, UniProt Q9NR96).
T1 construct: expressed in transfected cells; host or cells: HEK-Blue-hTLR9 cells (HEK293-derived reporter line)
T1 sequence (Q9NR96 26-1032): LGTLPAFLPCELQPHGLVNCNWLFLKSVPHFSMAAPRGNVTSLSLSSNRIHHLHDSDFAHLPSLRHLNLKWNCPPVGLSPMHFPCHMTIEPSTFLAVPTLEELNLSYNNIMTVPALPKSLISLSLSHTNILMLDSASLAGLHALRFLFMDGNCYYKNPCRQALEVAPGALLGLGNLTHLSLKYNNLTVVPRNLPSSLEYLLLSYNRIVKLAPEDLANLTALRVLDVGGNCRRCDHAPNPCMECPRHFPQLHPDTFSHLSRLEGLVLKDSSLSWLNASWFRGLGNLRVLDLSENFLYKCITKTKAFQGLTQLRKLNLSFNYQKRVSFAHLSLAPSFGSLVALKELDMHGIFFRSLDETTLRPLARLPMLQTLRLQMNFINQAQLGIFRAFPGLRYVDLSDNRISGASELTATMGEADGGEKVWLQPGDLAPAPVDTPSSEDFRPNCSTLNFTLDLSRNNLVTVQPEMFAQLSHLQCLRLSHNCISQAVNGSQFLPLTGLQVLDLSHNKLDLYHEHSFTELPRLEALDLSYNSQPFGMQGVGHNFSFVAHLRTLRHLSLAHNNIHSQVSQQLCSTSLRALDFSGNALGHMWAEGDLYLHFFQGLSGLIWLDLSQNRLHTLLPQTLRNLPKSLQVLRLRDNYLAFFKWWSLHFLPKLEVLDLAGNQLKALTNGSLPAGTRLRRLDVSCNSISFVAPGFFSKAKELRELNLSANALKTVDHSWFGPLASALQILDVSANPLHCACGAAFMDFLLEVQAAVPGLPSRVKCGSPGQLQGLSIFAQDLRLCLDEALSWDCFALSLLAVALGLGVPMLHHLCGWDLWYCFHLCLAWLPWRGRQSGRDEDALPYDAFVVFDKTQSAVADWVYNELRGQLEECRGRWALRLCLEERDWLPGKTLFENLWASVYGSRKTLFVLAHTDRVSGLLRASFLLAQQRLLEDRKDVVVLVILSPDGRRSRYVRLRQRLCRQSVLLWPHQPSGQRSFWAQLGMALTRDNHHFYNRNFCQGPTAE
The test can be described thus: HEK-Blue-hTLR9 cell inhibition assay. The test is classed as cell-based. To be noted: ODN2006 1 µM, 16 h, OD 620 nm, read-out: TLR9 IC50. As to the method:
HEK-Blue-hTLR7/8/9 cell inhibition assay
1. HEK-Blue-hTLR7/8 cells (1 × 10^4 cells/well) and HEK-Blue-hTLR9 cells (1.5 × 10^4 cells/well) were seeded in a 384-well cell culture plate, with a volume of 30 µL per well. The plate was incubated at 37°C in a 5% CO2 incubator for 4 h. 2. The compound was prepared with DMSO and diluted in DMEM medium to 10 concentrations (1:3 dilution), with final concentrations of 10000, 3333.3, 1111.1, 370.4, 123.5, 41.2, 13.7, 4.6, 1.5, and 0.5 nM; R848 was prepared with DMSO and diluted in DMEM medium, with final concentrations of 0.8 µM (HEK-Blue-hTLR7) and 3 µM (HEK-Blue-hTLR8); ODN2006 was prepared with endotoxin-free water and diluted in DMEM medium, with a final concentration of 1 µM. 3. Cells treated with DMSO were used as the blank control group, while cells treated solely with Resiquimod (R848) were used as the positive control group for HEK-Blue-hTLR7/8, and cells treated solely with ODN2006 were used as the positive control group for HEK-Blue-hTLR9. Cells treated with the test compound together with R848 or ODN2006 were used as the test group. Two parallel wells were set for each group and were placed at 37°C in a 5% CO2 incubator for incubation. 4. After being incubated for 4 h, the 384-well plate of HEK-Blue-hTLR7/8 was taken out from the incubator, and R848 alone or both R848 and the diluted compound were separately added into each well. The plate was placed at 37°C in a 5% CO2 incubator for incubation for 16 h; the 384-well plate of HEK-Blue-hTLR9 was taken out from the incubator, and ODN2006 alone or both ODN2006 and the diluted compound were added separately to each well. The plate was incubated at 37°C in a 5% CO2 incubator for 16 h. 5. After being incubated for 16 h, the 384-well plate was removed from the incubator and centrifuged at 1000 rpm for 1 minute. The optical density value of each well at 620 nm was measured using a multifunctional microplate reader. 6. The cell inhibition rate was calculated as (1-(OD620 test group-OD620 blank group)/(OD620 positive group-OD620 blank group))×100%, and the half maximal inhibitory concentration (IC50) was calculated through curve fitting. Table 1: Activity of the compounds of the present disclosure in HEK-Blue-hTLR7/8/9 cellular assays

As to `CN1CCN(c2nnc([C@]34CN(c5ccc(C#N)c6ncccc56)C[C@@]3(C(F)(F)F)C4)o2)CC1` [Compound 1, 5-((1S,5R)-1-(5-(4-methylpiperazin-1-yl)-1,3,4-oxadiazol-2-yl)-5-(trifluoromethyl)-3-azabicyclo[3.1.0]hexan-3-yl)quinoline-8-carbonitrile], the IC50 was greater than 10000 nM. For `Cc1cc(N2CC3(c4nnc(C5CCN(C)CC5)o4)C[C@]3(C(F)(F)F)C2)c2cnn(C)c2n1` (stereo partly drawn) [Compound 2, 2-((5R)-3-(1,6-dimethyl-1H-pyrazolo[3,4-b]pyridin-4-yl)-5-(trifluoromethyl)-3-azabicyclo[3.1.0]hexan-1-yl)-5-(1-methylpiperidin-4-yl)-1,3,4-oxadiazole], the IC50 is greater than 10000 nM.

With `FC(F)(F)c1ccc(N2C[C@]3(c4nnc(C5(F)CCNCC5)o4)C[C@]3(C(F)(F)F)C2)c2cccnc12` [Compound 3, 2-(4-fluoropiperidin-4-yl)-5-((1S,5R)-5-(trifluoromethyl)-3-(8-(trifluoromethyl)quinolin-5-yl)-3-azabicyclo[3.1.0]hexan-1-yl)-1,3,4-oxadiazole], the IC50 is greater than 1000 nM. With `CN1CC(c2nnc([C@]34CN(c5ccc(C(F)(F)F)c6ncccc56)C[C@@]3(C(F)(F)F)C4)o2)C1` [Compound 4, 2-(1-methylazetidin-3-yl)-5-((1S,5R)-5-(trifluoromethyl)-3-(8-(trifluoromethyl)quinolin-5-yl)-3-azabicyclo[3.1.0]hexan-1-yl)-1,3,4-oxadiazole], the IC50 is greater than 1000 nM. In the case of `CN1CCC(c2nnc([C@]34CN(c5ccc(C#N)c6ncccc56)C[C@@]3(C(F)(F)F)C4)n2C)CC1` [Compound 5, 5-((1S,5R)-1-(4-methyl-5-(1-methylpiperidin-4-yl)-4H-1,2,4-triazol-3-yl)-5-(trifluoromethyl)-3-azabicyclo[3.1.0]hexan-3-yl)quinoline-8-carbonitrile], the IC50 was greater than 1000 nM. With `CN1CCC(Nc2nnc([C@]34CN(c5ccc(C#N)c6ncccc56)C[C@@]3(C(F)(F)F)C4)o2)CC1` [Compound 6, 5-((1S,5R)-1-(5-((1-methylpiperidin-4-yl)amino)-1,3,4-oxadiazol-2-yl)-5-(trifluoromethyl)-3-azabicyclo[3.1.0]hexan-3-yl)quinoline-8-carbonitrile], the IC50 was greater than 1000 nM. Regarding `N#Cc1ccc(N2C[C@]3(c4nnc(N)o4)C[C@]3(C(F)(F)F)C2)c2cccnc12` [Compound 7, 5-((1S,5R)-1-(5-amino-1,3,4-oxadiazol-2-yl)-5-(trifluoromethyl)-3-azabicyclo[3.1.0]hexan-3-yl)quinoline-8-carbonitrile], the IC50 was greater than 10000 nM.

As for `CN1CCC(C)(c2nnc([C@]34CN(c5ccc(C#N)c6ncccc56)C[C@@]3(C(F)(F)F)C4)o2)CC1` [Compound 8, 5-((1S,5R)-1-(5-(1,4-dimethylpiperidin-4-yl)-1,3,4-oxadiazol-2-yl)-5-(trifluoromethyl)-3-azabicyclo[3.1.0]hexan-3-yl)quinoline-8-carbonitrile], the IC50 was greater than 1000 nM. The value for `CN1CCC(c2nnc([C@]34CN(c5ccc(C#N)c6ncccc56)C[C@@]3(C(F)(F)F)C4)[nH]2)CC1` [Compound 9, 5-((1S,5R)-1-(5-(1-methylpiperidin-4-yl)-4H-1,2,4-triazol-3-yl)-5-(trifluoromethyl)-3-azabicyclo[3.1.0]hexan-3-yl)quinoline-8-carbonitrile] was greater than 1000 nM; that for `CN1[C@@H]2CC[C@H]1C[C@H](c1nnc([C@]34CN(c5ccc(C#N)c6ncccc56)C[C@@]3(C(F)(F)F)C4)o1)C2` [Compound 11, 5-((1S,5R)-1-(5-((1R,3S,5S)-8-methyl-8-azabicyclo[3.2.1]octan-3-yl)-1,3,4-oxadiazol-2-yl)-5-(trifluoromethyl)-3-azabicyclo[3.1.0]hexan-3-yl)quinoline-8-carbonitrile] was greater than 1000 nM.
